Source: US6818621B2, “Osteopontin-derived chemotactic and inhibitory agents and uses therefor” (Children's Medical Center Corporation, priority 1999, dated 2004)
Where no end group is shown, it is not given here.

What follows are substances tested on MDA-MB-231 cells (assay: Inhibition of OPN induced chemotaxis in the chemotactic chamber assay). Settings: Table 4; 100 nmoles of peptide; cells migrating towards OPN in presence of buffer divided by number migrating towards OPN in presence of peptide.
Assay type: cell-based, human
Procedure: (§1) To evaluate the potential of peptide analogues to inhibit OPN induced chemotaxis, 100 nmoles of peptide was added to the lower compartment and the response of these cells to OPN was determined as described. MI(buffer) was calculated by dividing the number of cells migrating in response to peptide by the number of cells migrating in response to buffer. MI(inhibitory) equals the number of cells migrating towards OPN in the presence of buffer divided by the number migrating towards OPN in the presence of peptide.

| Substance | MI inhibitory |
| --- | --- |
| LVLDP (OTHER INFORMATION: Description of Artificial Sequence:Synthetic Peptide) [pepG] | 4 |
| LVIDPK (OTHER INFORMATION: Description of Artificial Sequence:Synthetic Peptide) [pepD] | 9 |
| LVPDPK (OTHER INFORMATION: Description of Artificial Sequence:Synthetic Peptide) [pepB] | 8 |
| LVLAPK (OTHER INFORMATION: Description of Artificial Sequence:Synthetic Peptide) [pepI] | 9 |
| LVLEPK (OTHER INFORMATION: Description of Artificial Sequence:Synthetic Peptide) [pepJ] | 9 |
| VLDPK (OTHER INFORMATION: Description of Artificial Sequence:Synthetic Peptide) [pepF] | 7 |
| KFHSHKDKLVLDPKSK (OTHER INFORMATION: Description of Artificial Sequence:Synthetic Peptide) [SP64] | 9 |
| LELDPK (OTHER INFORMATION: Description of Artificial Sequence:Synthetic Peptide) [pepH] | 10 |
| LVLDEK (OTHER INFORMATION: Description of Artificial Sequence:Synthetic Peptide) [pepE] | 10 |
| LVPDSK (OTHER INFORMATION: Description of Artificial Sequence:Synthetic Peptide) [pepC] | 10 |
| Acetyl-LVLDP (Ac-LVLDP) [pepK″] | 4 |

Same assay, conditions: migratory index against peptide 51

| Substance | inhibition of chemotaxis by peptide (in words) |
| --- | --- |
| LVLDP (OTHER INFORMATION: Description of Artificial Sequence:Synthetic Peptide) [pepG] | inhibits chemotaxis |

Each substance was assayed on MDA-MB-231 cells (CD44+ human breast adenocarcinoma cells) (assay: Chemotactic chamber (Boyden) assay, migration through polycarbonate filters). Settings: not given.
Assay type: cell-based
Procedure: Each peak was then tested for mediation of chemotaxis or for its ability to inhibit OPN mediated chemotaxis using the chemotactic assay as follows (see e.g., Weber et al. (1996) Science 271:509-512). Briefly, uncoated polycarbonated filters (pore size […] ) were used to separate the upper and lower chambers of chemotactic wells. 1×10^3 MDA-MB-231 cells (CD44^+human breast adenocarcinoma cells) were added to the upper chamber and incubated in the presence or absence of the indicated 50 pmols peptide. After 4 hours, the filters were removed, fixed in methanol arid stained with hematoxylin and eosin. Cells which have responded to the peptide, migrate to various areas of the lower surface and can be counted microscopically. Each data point is reported as the mean number of migrating cells per random high power field.
Peptide 51 was identified as being chemotactic. The peptide was sequenced using a gas-phase sequenator and determined to have the sequence LVLDPK (SEQ ID NO:1). To confirm that chemotaxis was due to this peptide, a 16 amino acid peptide spanning the chemotactic sequence in OPN was synthesized and tested for its chemotactic properties. The resulting peptide, SP64 has the sequence KFHSHKDKLVLDPKSK (SEQ ID NO:2) and containing the chemotactic sequence from residues 9-14. 2×10^4 MDA-MB-231 cells were assayed for chemotactic response to the indicated peptides as described above. Each data point is reported as the mean number of migrating cells per six random high powered fields ± standard error of the mean. Each experiment was repeated four times.
To test the amino acid specificity for chemotactic response several substitutions were created in the chemotactic sequence and the new peptides tested for their ability to induce chemotaxis. Data are expressed as migratory index (cells migrating in response to peptide/cells migration in response to LVLDPK, SEQ ID NO:1).
as §1

| Substance | chemotactic activity (in words) |
| --- | --- |
| VDPK (OTHER INFORMATION: Description of Artificial Sequence:Synthetic Peptide) | retain chemotactic activity |
| ILVDPK (OTHER INFORMATION: Description of Artificial Sequence:Synthetic Peptide) | chemotactic activity |
| VVLDPK (OTHER INFORMATION: Description of Artificial Sequence:Synthetic Peptide) | chemotactic activity |
| VLDSK (OTHER INFORMATION: Description of Artificial Sequence:Synthetic Peptide) | retain chemotactic activity |
| LLVDPK (OTHER INFORMATION: Description of Artificial Sequence:Synthetic Peptide) | chemotactic activity |

Same assay, conditions: Table 2; labelled agent in lower chamber, Ab64 in upper chamber

| Substance | mean number of migrating cells per six random high powered fields |
| --- | --- |
| KFHSHKDKLVLDPKSK (OTHER INFORMATION: Description of Artificial Sequence:Synthetic Peptide) [SP64] | 25 cells per six random high powered fields |

Same assay, conditions: Table 2; labelled agent in lower chamber, OPN in upper chamber

| Substance | mean number of migrating cells per six random high powered fields |
| --- | --- |
| KFHSHKDKLVLDPKSK (OTHER INFORMATION: Description of Artificial Sequence:Synthetic Peptide) [SP64] | 66 cells per six random high powered fields |

Same assay, conditions: Table 2; labelled agent in lower chamber, PBS in upper chamber; 2×10^4 cells

| Substance | mean number of migrating cells per six random high powered fields |
| --- | --- |
| KFHSHKDKLVLDPKSK (OTHER INFORMATION: Description of Artificial Sequence:Synthetic Peptide) [SP64] | 217 cells per six random high powered fields |

Same assay, conditions: Table 2; labelled agent in lower chamber, SP64 in upper chamber

| Substance | mean number of migrating cells per six random high powered fields |
| --- | --- |
| KFHSHKDKLVLDPKSK (OTHER INFORMATION: Description of Artificial Sequence:Synthetic Peptide) [SP64] | 66 cells per six random high powered fields |

Same assay, conditions: Table 2; labelled agent in lower chamber, pep 51 in upper chamber

| Substance | mean number of migrating cells per six random high powered fields |
| --- | --- |
| KFHSHKDKLVLDPKSK (OTHER INFORMATION: Description of Artificial Sequence:Synthetic Peptide) [SP64] | 97 cells per six random high powered fields |

Same assay, conditions: Table 2; labelled agent in upper chamber, PBS in lower chamber

| Substance | mean number of migrating cells per six random high powered fields |
| --- | --- |
| KFHSHKDKLVLDPKSK (OTHER INFORMATION: Description of Artificial Sequence:Synthetic Peptide) [SP64] | 243 cells per six random high powered fields |

Same assay, conditions: Table 3; cells migrating in response to peptide/cells migration in response to LVLDPK

| Substance | Migratory Index |
| --- | --- |
| LVLDP (OTHER INFORMATION: Description of Artificial Sequence:Synthetic Peptide) [pepG] | 0.1 |
| LVIDPK (OTHER INFORMATION: Description of Artificial Sequence:Synthetic Peptide) [pepD] | 1 |
| LVPDPK (OTHER INFORMATION: Description of Artificial Sequence:Synthetic Peptide) [pepB] | 1 |
| LVLAPK (OTHER INFORMATION: Description of Artificial Sequence:Synthetic Peptide) [pepI] | 0.1 |
| LVLEPK (OTHER INFORMATION: Description of Artificial Sequence:Synthetic Peptide) [pepJ] | 0.6 |
| LVLDPA (OTHER INFORMATION: Description of Artificial Sequence:Synthetic Peptide) [pepK] | 0.1 |
| VLDPK (OTHER INFORMATION: Description of Artificial Sequence:Synthetic Peptide) [pepF] | 0.7 |
| ILVVDPK (OTHER INFORMATION: Description of Artificial Sequence:Synthetic Peptide) [pepK′] | 1.0 |
| KFHSHKDKLVLDPKSK (OTHER INFORMATION: Description of Artificial Sequence:Synthetic Peptide) [SP64] | 1 |
| LVLVPK (OTHER INFORMATION: Description of Artificial Sequence:Synthetic Peptide) [pepA] | 0.2 |
| LELDPK (OTHER INFORMATION: Description of Artificial Sequence:Synthetic Peptide) [pepH] | 0.3 |
| LVLDEK (OTHER INFORMATION: Description of Artificial Sequence:Synthetic Peptide) [pepE] | 0.2 |
| LVPDSK (OTHER INFORMATION: Description of Artificial Sequence:Synthetic Peptide) [pepC] | 1 |

Same assay, conditions: Table 4; cells migrating in response to peptide divided by cells migrating in response to buffer

| Substance | MI buffer |
| --- | --- |
| LVLDP (OTHER INFORMATION: Description of Artificial Sequence:Synthetic Peptide) [pepG] | 0 |
| LVIDPK (OTHER INFORMATION: Description of Artificial Sequence:Synthetic Peptide) [pepD] | 11 |
| LVPDPK (OTHER INFORMATION: Description of Artificial Sequence:Synthetic Peptide) [pepB] | 10 |
| LVLAPK (OTHER INFORMATION: Description of Artificial Sequence:Synthetic Peptide) [pepI] | 1 |
| LVLEPK (OTHER INFORMATION: Description of Artificial Sequence:Synthetic Peptide) [pepJ] | 6 |
| VLDPK (OTHER INFORMATION: Description of Artificial Sequence:Synthetic Peptide) [pepF] | 6 |
| KFHSHKDKLVLDPKSK (OTHER INFORMATION: Description of Artificial Sequence:Synthetic Peptide) [SP64] | 12 |
| LELDPK (OTHER INFORMATION: Description of Artificial Sequence:Synthetic Peptide) [pepH] | 2 |
| LVLDEK (OTHER INFORMATION: Description of Artificial Sequence:Synthetic Peptide) [pepE] | 2 |
| LVPDSK (OTHER INFORMATION: Description of Artificial Sequence:Synthetic Peptide) [pepC] | 7 |
| Acetyl-LVLDP (Ac-LVLDP) [pepK″] | 1 |

Same assay, conditions: Table 4; migratory index

| Substance | MI |
| --- | --- |
| LVLDP (OTHER INFORMATION: Description of Artificial Sequence:Synthetic Peptide) [pepG] | 0.1 |
| LVIDPK (OTHER INFORMATION: Description of Artificial Sequence:Synthetic Peptide) [pepD] | 1 |
| LVPDPK (OTHER INFORMATION: Description of Artificial Sequence:Synthetic Peptide) [pepB] | 1 |
| LVLAPK (OTHER INFORMATION: Description of Artificial Sequence:Synthetic Peptide) [pepI] | 0.1 |
| LVLEPK (OTHER INFORMATION: Description of Artificial Sequence:Synthetic Peptide) [pepJ] | 0.6 |
| VLDPK (OTHER INFORMATION: Description of Artificial Sequence:Synthetic Peptide) [pepF] | 0.7 |
| KFHSHKDKLVLDPKSK (OTHER INFORMATION: Description of Artificial Sequence:Synthetic Peptide) [SP64] | 1 |
| LELDPK (OTHER INFORMATION: Description of Artificial Sequence:Synthetic Peptide) [pepH] | 0.3 |
| LVLDEK (OTHER INFORMATION: Description of Artificial Sequence:Synthetic Peptide) [pepE] | 0.2 |
| LVPDSK (OTHER INFORMATION: Description of Artificial Sequence:Synthetic Peptide) [pepC] | 1 |

Same assay, conditions: p<0.01; 200 ng of bone OPN

| Substance | chemotactic response of MDA-MB231 (in words) |
| --- | --- |
| KFHSHKDKLVLDPKSK (OTHER INFORMATION: Description of Artificial Sequence:Synthetic Peptide) [SP64] | stimulated the chemotactic response |

The substances below were run on cells recruited into the peritoneum (assay: In vivo chemotaxis after injection of peptide into the peritoneal cavity, lavage and flow cytometry). Settings: 25 nmols i.p., 6 hours, normalized to PBS-injected mouse, average of 6 mice.
Parameters: species or system C57 black mice
Procedure: Since the peptide LVLDPK (SEQ ID NO:1) was chemotactic to tumor cells and macrophages in vitro, we tested whether the peptide was chemotactic in vivo. 25 nmols of the peptide were injected into the peritoneal cavity of C57 black mice. After six hours the cells recruited into the peritoneum were recovered by lavage and identified by flow cytometry. Titration of soluble peptides into the peritoneum induces a cellular infiltrate in a dose dependent manner. The induction ratio is the number of cells of a particular lineage recovered from the peritoneum of a peptide-injected mouse (e.g., 6 hours after injection) normalized for each experiment to the number of cells of the same lineage recovered from the peritoneum of a PBS-injected mouse. Cell numbers for PBS-injected mice ranged from […] to 646,000 cells total; 182,300 to 325,000 CD44^+ cells; 224,000 to 496,000 […] cells; 31,300 to 76,000 B220^+ cells; 18,100 to 21,100 CD3^+ cells), representing the induction of macrophages (Mac-1^+), B cells (B220^+), and T cells (CD3^+). Values represent an average of 6 mice.

| Substance | induction ratio, Total | induction ratio, Total CD44 |
| --- | --- | --- |
| VLDPK (OTHER INFORMATION: Description of Artificial Sequence:Synthetic Peptide) [pepF] | 4 | 3.1 |
| LVLVPK (OTHER INFORMATION: Description of Artificial Sequence:Synthetic Peptide) [pepA] | 1.3 | 1.8 |

Same assay, conditions: B220+; 25 nmols i.p., 6 hours, normalized to PBS-injected mouse, average of 6 mice

| Substance | induction ratio, B-lymphocytes |
| --- | --- |
| VLDPK (OTHER INFORMATION: Description of Artificial Sequence:Synthetic Peptide) [pepF] | 1.1 |
| LVLVPK (OTHER INFORMATION: Description of Artificial Sequence:Synthetic Peptide) [pepA] | 1 |

Same assay, conditions: CD3+; 25 nmols i.p., 6 hours, normalized to PBS-injected mouse, average of 6 mice

| Substance | induction ratio, T-lymphocytes |
| --- | --- |
| VLDPK (OTHER INFORMATION: Description of Artificial Sequence:Synthetic Peptide) [pepF] | 0.8 |
| LVLVPK (OTHER INFORMATION: Description of Artificial Sequence:Synthetic Peptide) [pepA] | 1.1 |

Same assay, conditions: Mac-1+; 25 nmols i.p., 6 hours, normalized to PBS-injected mouse, average of 6 mice

| Substance | induction ratio, Monocytes |
| --- | --- |
| VLDPK (OTHER INFORMATION: Description of Artificial Sequence:Synthetic Peptide) [pepF] | 2.8 |
| LVLVPK (OTHER INFORMATION: Description of Artificial Sequence:Synthetic Peptide) [pepA] | 1.2 |

Same assay, conditions: mouse, in vivo

| Substance | chemotactic activity in vivo (in words) |
| --- | --- |
| VLDPK (OTHER INFORMATION: Description of Artificial Sequence:Synthetic Peptide) [pepF] | chemotactic but exhibited less activity |
